# Results published in patent US11382892B2, “Method for administration” (Hoffmann-La Roche Inc., priority 2012, dated 2022).
# What was measured:
# [1] = test system: human acute myeloid leukemia xenograft model MOLM-13; assay: Survival / increase in life span in MOLM-13 xenograft; type: in vivo, mice; details: 80 mg/kg qd × 5 po
# Experimental: (§1) For survival assessment, the percent of increased life space (ILS) was calculated as: 100×[(median survival day of treated group−median survival day of control group)/median survival day of control group]. Median survival was determined utilizing Kaplan Meier survival analysis. Survival in treated groups was statistically compared with the vehicle group and survival comparisons were done between groups using the log-rank test (Graph Pad Prism, La Jolla, Calif., USA). Differences between groups were considered significant when the probability value (p) was ≤0:05.
# (§2) All dose levels are reported as the actual dosage of Compound A rather than including drug plus polymer.
# Female SCID:beige mice (10/group), obtained from Charles River Laboratories (Wilmington, Del.) were utilized when they were approximately 8-10 weeks of age and weighed 21-23 g. The health of the mice was assessed daily by gross observation and analyses of blood samples taken from sentinel animals housed on shared shelf racks. All animals were allowed to acclimate and recover from any shipping-related stress for a minimum of 72 hours prior to experimental use. […]
# Treatment duration was initiated on day 3 and was for 2 weeks. Animal body weights were measured three times per week and animals were monitored for clinical signs daily.
# [2] = test system: human osteosarcoma cancer xenograft model SJSA1; assay: Survival / increase in life span in SJSA1 xenograft; type: in vivo, mice; details: for 50% Treatment Days (median survival): vehicle 26 days
# Experimental: as §1, §2
# Female athymic Crl:NU-Foxn1nu mice (10/group), obtained from Charles River Laboratories (Wilmington, Del.) were utilized when they were approximately 10-12 weeks of age and weighed 23-25 g. The health of the mice was assessed daily by gross observation and analyses of blood samples taken from sentinel animals housed on shared shelf racks. All animals were allowed to acclimate and recover from any shipping-related stress for a minimum of 72 hours prior to experimental use. Autoclaved water and irradiated food (5058-ms Pico Lab mouse chow, Purina Mills, Richmond, Ind.) were provided ad libitum, and the animals were maintained on a 12 hour light and dark cycle. Cages, bedding and water bottles were autoclaved before use and changed weekly. All animal experiments were conducted in accordance with the Guide for the Care and Use of Laboratory Animals, local regulations, and protocols approved by the Roche Animal Care and Use Committee in an AAALAC accredited facility.
# SJSA cells (ATCC) were maintained in RPMI 1640+10% (v/v) heat-inactivated FBS+i % (v/v) […] L-glutamine. Each mouse received 5×10^6 cells in a 1:1 mixture of phosphate buffered saline and Matrigel in a total volume of 0.2 ml. Cells were implanted subcutaneously in the right flank using a 1 cc syringe and a 26 gauge needle.
# Treatment duration was 2-4 weeks. Dates of tumor implant, treatment initiation (study start date), and termination of treatment (study end date) can be found in Table 6 below. The starting tumor volume for this study was about 220 mm^3. Tumor volumes and animal body weights were measured three times per week and animals were monitored for clinical signs daily.
# [3] = 100 mg/kg QD po 2 on/12 off x 2
# [4] = 200 mg/kg (two 100 mg/kg doses 8 hr apart) 1x/wk po
smiles,measurement,setting,value
"COc1cc(C(=O)O)ccc1NC(=O)[C@@H]1N[C@@H](CC(C)(C)C)[C@](C#N)(c2ccc(Cl)cc2F)[C@H]1c1cccc(Cl)c1F [Compound A, 4-{[(2R,3S,4R,5S)-4-(4-Chloro-2-fluoro-phenyl)-3-(3-chloro-2-fluoro-phenyl)-4-cyano-5-(2,2-dimethyl-propyl)-pyrrolidine-2-carbonyl]-amino}-3-methoxy-benzoic acid]",% ILS,[1],37%
same,50% Treatment Days (median survival),[1]; vehicle 21 days,28 days
same,% Increased Life Span (% ILS),[2]; 7.5 mg/kg QD po,23%
same,50% Treatment Days (median survival),[2]; 7.5 mg/kg QD po,32 days
same,% Increased Life Span (% ILS),[2]; 15 mg/kg QD po,62%
same,50% Treatment Days (median survival),[2]; 15 mg/kg QD po,42 days
same,% Increased Life Span (% ILS),[2]; 20 mg/kg QD po 20 on/8 off,77%
same,50% Treatment Days (median survival),[2]; 20 mg/kg QD po 20 on/8 off,46 days
same,% Increased Life Span (% ILS),[2]; 30 mg/kg QD po,127%
same,50% Treatment Days (median survival),[2]; 30 mg/kg QD po,59 days
same,% Increased Life Span (% ILS),[2]; 50 mg/kg 1x/wk po,23%
same,50% Treatment Days (median survival),[2]; 50 mg/kg 1x/wk po,32 days
same,% Increased Life Span (% ILS),[2]; 50 mg/kg QD po 2 on/5 off x 4,119%
same,50% Treatment Days (median survival),[2]; 50 mg/kg QD po 2 on/5 off x 4,57 days
same,% Increased Life Span (% ILS),[2]; 50 mg/kg QD po 4 on/10 off x 2,112%
same,50% Treatment Days (median survival),[2]; 50 mg/kg QD po 4 on/10 off x 2,55 days
same,% Increased Life Span (% ILS),[2]; 80 mg/kg QD po 5 on/23 off,127%
same,50% Treatment Days (median survival),[2]; 80 mg/kg QD po 5 on/23 off,59 days
same,% Increased Life Span (% ILS),[2]; 100 mg/kg 1x/wk po,77%
same,50% Treatment Days (median survival),[2]; 100 mg/kg 1x/wk po,46 days
same,% Increased Life Span (% ILS),[2]; 100 mg/kg QD po 2 on/5 off x 4,188%
same,50% Treatment Days (median survival),[2]; 100 mg/kg QD po 2 on/5 off x 4,75 days
same,% Increased Life Span (% ILS),[2]; [3],119%
same,50% Treatment Days (median survival),[2]; [3],57 days
same,% Increased Life Span (% ILS),[2]; [4],162%
same,50% Treatment Days (median survival),[2]; [4],68 days
